What was measured:
Assay type in all cases: functional
NCI-H522 = test: Growth inhibition of human NCI-H522 cells at 10^-5 M incubated for 48 hrs by sulforhodamine B assay; conditions: NCI-H522, 48 h, read-out: GI
SF-295 = test: Growth inhibition of human SF295 cells at 10^-5 M incubated for 48 hrs by sulforhodamine B assay; conditions: SF-295, 48 h, read-out: GI
TK-10 = test: Growth inhibition of human TK10 cells at 10^-5 M incubated for 48 hrs by sulforhodamine B assay; conditions: TK-10, 48 h, read-out: GI
A498 = test: Growth inhibition of human A498 cells at 10^-5 M incubated for 48 hrs by sulforhodamine B assay; conditions: A498, 48 h, read-out: GI
UACC-62 = test: Growth inhibition of human UACC62 cells at 10^-5 M incubated for 48 hrs by sulforhodamine B assay; conditions: UACC-62, 48 h, read-out: GI
MCF7 = test: Growth inhibition of human MCF7 cells at 10^-5 M incubated for 48 hrs by sulforhodamine B assay; conditions: MCF7, 48 h, read-out: GI
SK-MEL-28 = test: Growth inhibition of human SK-MEL-28 cells at 10^-5 M incubated for 48 hrs by sulforhodamine B assay; conditions: SK-MEL-28, 48 h, read-out: GI
UO-31 = test: Growth inhibition of human UO31 cells at 10^-5 M incubated for 48 hrs by sulforhodamine B assay; conditions: UO-31, 48 h, read-out: GI
CCRF-CEM = test: Growth inhibition of human CCRF-CEM cells at 10^-5 M incubated for 48 hrs by sulforhodamine B assay; conditions: read-out: GI
SN12C = test: Growth inhibition of human SN12C cells at 10^-5 M incubated for 48 hrs by sulforhodamine B assay; conditions: read-out: GI
786-0 = test: Growth inhibition of human 786-0 cells at 10^-5 M incubated for 48 hrs by sulforhodamine B assay; conditions: 786-0, 48 h, read-out: GI
NCI-H460 = test: Growth inhibition of human NCI-H460 cells at 10^-5 M incubated for 48 hrs by sulforhodamine B assay; conditions: NCI-H460, 48 h, read-out: GI
DU-145 = test: Growth inhibition of human DU145 cells at 10^-5 M incubated for 48 hrs by sulforhodamine B assay; conditions: DU-145, 48 h, read-out: GI
PC-3 = test: Growth inhibition of human PC3 cells at 10^-5 M incubated for 48 hrs by sulforhodamine B assay; conditions: PC-3, 48 h, read-out: GI
HOP-62 = test: Growth inhibition of human HOP62 cells at 10^-5 M incubated for 48 hrs by sulforhodamine B assay; conditions: HOP-62, 48 h, read-out: GI
IGROV-1 = test: Growth inhibition of human IGROV1 cells at 10^-5 M incubated for 48 hrs by sulforhodamine B assay; conditions: IGROV-1, 48 h, read-out: GI
SF-539 = test: Growth inhibition of human SF539 cells at 10^-5 M incubated for 48 hrs by sulforhodamine B assay; conditions: SF-539, 48 h, read-out: GI
HL-60(TB) = test: Growth inhibition of human HL-60(TB) cells at 10^-5 M incubated for 48 hrs by sulforhodamine B assay; conditions: HL-60, 48 h, read-out: GI
EKVX = test: Growth inhibition of human EKVX cells at 10^-5 M incubated for 48 hrs by sulforhodamine B assay; conditions: read-out: GI
UACC-257 = test: Growth inhibition of human UACC257 cells at 10^-5 M incubated for 48 hrs by sulforhodamine B assay; conditions: UACC-257, 48 h, read-out: GI
LOX IMVI = test: Growth inhibition of human LOXIMVI cells at 10^-5 M incubated for 48 hrs by sulforhodamine B assay; conditions: read-out: GI
HCT-116 = test: Growth inhibition of human HCT116 cells at 10^-5 M incubated for 48 hrs by sulforhodamine B assay; conditions: HCT-116, 48 h, read-out: GI
MDA-MB-435 = test: Growth inhibition of human MDA-MB-435 cells at 10^-5 M incubated for 48 hrs by sulforhodamine B assay; conditions: MDA-MB-435, 48 h, read-out: GI
OVCAR-4 = test: Growth inhibition of human OVCAR4 cells at 10^-5 M incubated for 48 hrs by sulforhodamine B assay; conditions: OVCAR-4, 48 h, read-out: GI
HOP-92 = test: Growth inhibition of human HOP92 cells at 10^-5 M incubated for 48 hrs by sulforhodamine B assay; conditions: HOP-92, 48 h, read-out: GI
SK-OV-3 = test: Growth inhibition of human SKOV3 cells at 10^-5 M incubated for 48 hrs by sulforhodamine B assay; conditions: SK-OV-3, 48 h, read-out: GI
OVCAR-5 = test: Growth inhibition of human OVCAR5 cells at 10^-5 M incubated for 48 hrs by sulforhodamine B assay; conditions: OVCAR-5, 48 h, read-out: GI
ACHN = test: Growth inhibition of human ACHN cells at 10^-5 M incubated for 48 hrs by sulforhodamine B assay; conditions: read-out: GI
OVCAR-8 = test: Growth inhibition of human OVCAR8 cells at 10^-5 M incubated for 48 hrs by sulforhodamine B assay; conditions: OVCAR-8, 48 h, read-out: GI
NCI-H23 = test: Growth inhibition of human NCI-H23 cells at 10^-5 M incubated for 48 hrs by sulforhodamine B assay; conditions: NCI-H23, 48 h, read-out: GI
HT-29 = test: Growth inhibition of human HT-29 cells at 10^-5 M incubated for 48 hrs by sulforhodamine B assay; conditions: HT-29, 48 h, read-out: GI
SK-MEL-2 = test: Growth inhibition of human SK-MEL-2 cells at 10^-5 M incubated for 48 hrs by sulforhodamine B assay; conditions: SK-MEL-2, 48 h, read-out: GI
KM12 = test: Growth inhibition of human KM12 cells at 10^-5 M incubated for 48 hrs by sulforhodamine B assay; conditions: KM12, 48 h, read-out: GI
K562 = test: Growth inhibition of human K562 cells at 10^-5 M incubated for 48 hrs by sulforhodamine B assay; conditions: K562, 48 h, read-out: GI
Hs-578T = test: Growth inhibition of human Hs 578T cells at 10^-5 M incubated for 48 hrs by sulforhodamine B assay; conditions: read-out: GI
M14 = test: Growth inhibition of human M14 cells at 10^-5 M incubated for 48 hrs by sulforhodamine B assay; conditions: M14, 48 h, read-out: GI
Malme-3M = test: Growth inhibition of human MALME-3M cells at 10^-5 M incubated for 48 hrs by sulforhodamine B assay; conditions: read-out: GI
SF-268 = test: Growth inhibition of human SF268 cells at 10^-5 M incubated for 48 hrs by sulforhodamine B assay; conditions: SF-268, 48 h, read-out: GI
SNB-19 = test: Growth inhibition of human SNB19 cells at 10^-5 M incubated for 48 hrs by sulforhodamine B assay; conditions: SNB-19, 48 h, read-out: GI

O=C1/C(=C\c2cccc(Br)c2)Sc2ccc(Cl)cc21
inhibition of growth at 10 µM (NCI-H522): 5.63%
inhibition of growth at 10 µM (SF-295): -0.53%
inhibition of growth at 10 µM (TK-10): -29.1%
inhibition of growth at 10 µM (A498): 13.5%
inhibition of growth at 10 µM (UACC-62): 2.69%
inhibition of growth at 10 µM (MCF7): -12.3%
inhibition of growth at 10 µM (SK-MEL-28): -20.5%
inhibition of growth at 10 µM (UO-31): -29.1%
inhibition of growth at 10 µM (CCRF-CEM): -14.5%
inhibition of growth at 10 µM (SN12C): -0.02%
inhibition of growth at 10 µM (786-0): -3.61%
inhibition of growth at 10 µM (NCI-H460): -7.98%
inhibition of growth at 10 µM (DU-145): -12.3%
inhibition of growth at 10 µM (PC-3): -1.54%
inhibition of growth at 10 µM (HOP-62): 3.1%
inhibition of growth at 10 µM (IGROV-1): -2.64%
inhibition of growth at 10 µM (SF-539): -3.89%
inhibition of growth at 10 µM (HL-60(TB)): -5.53%
inhibition of growth at 10 µM (EKVX): -0.43%
inhibition of growth at 10 µM (UACC-257): -6.58%
inhibition of growth at 10 µM (LOX IMVI): 2.63%
inhibition of growth at 10 µM (HCT-116): 0.42%
inhibition of growth at 10 µM (MDA-MB-435): -14%
inhibition of growth at 10 µM (OVCAR-4): -9.77%
inhibition of growth at 10 µM (HOP-92): -15.1%
inhibition of growth at 10 µM (SK-OV-3): 5.77%
inhibition of growth at 10 µM (OVCAR-5): -9.67%
inhibition of growth at 10 µM (ACHN): 3.66%
inhibition of growth at 10 µM (OVCAR-8): -3.52%
inhibition of growth at 10 µM (NCI-H23): 8.26%
inhibition of growth at 10 µM (HT-29): -10.6%
inhibition of growth at 10 µM (SK-MEL-2): -5.68%
inhibition of growth at 10 µM (KM12): -0.19%
inhibition of growth at 10 µM (K562): -7.99%
inhibition of growth at 10 µM (Hs-578T): -8.14%
inhibition of growth at 10 µM (M14): -1.09%
inhibition of growth at 10 µM (Malme-3M): -1.08%
inhibition of growth at 10 µM (SF-268): 2.33%
inhibition of growth at 10 µM (SNB-19): -6.33%

NC(=O)CSC1=Nc2c(sc3ccc(Cl)cc23)C(c2cccc([N+](=O)[O-])c2)N1 (stereo not drawn)
inhibition of growth at 10 µM (NCI-H522): 6.5%
inhibition of growth at 10 µM (SF-295): -2.8%
inhibition of growth at 10 µM (TK-10): -16.6%
inhibition of growth at 10 µM (A498): 20.2%
inhibition of growth at 10 µM (UACC-62): 6.2%
inhibition of growth at 10 µM (MCF7): 22.4%
inhibition of growth at 10 µM (SK-MEL-28): -21.2%
inhibition of growth at 10 µM (UO-31): 34.3%
inhibition of growth at 10 µM (CCRF-CEM): -22%
inhibition of growth at 10 µM (SN12C): 1.64%
inhibition of growth at 10 µM (786-0): -0.38%
inhibition of growth at 10 µM (NCI-H460): 19.3%
inhibition of growth at 10 µM (DU-145): -14.8%
inhibition of growth at 10 µM (PC-3): 7.5%
inhibition of growth at 10 µM (HOP-62): 6.5%
inhibition of growth at 10 µM (IGROV-1): 22%
inhibition of growth at 10 µM (SF-539): 0.81%
inhibition of growth at 10 µM (HL-60(TB)): -2.94%
inhibition of growth at 10 µM (EKVX): 23.6%
inhibition of growth at 10 µM (UACC-257): -1.31%
inhibition of growth at 10 µM (LOX IMVI): 3.56%
inhibition of growth at 10 µM (HCT-116): 6.66%
inhibition of growth at 10 µM (MDA-MB-435): -11.3%
inhibition of growth at 10 µM (OVCAR-4): -4.84%
inhibition of growth at 10 µM (HOP-92): -21.6%
inhibition of growth at 10 µM (SK-OV-3): 4.62%
inhibition of growth at 10 µM (OVCAR-5): -5.8%
inhibition of growth at 10 µM (ACHN): 8.24%
inhibition of growth at 10 µM (OVCAR-8): -3.56%
inhibition of growth at 10 µM (NCI-H23): 4.2%
inhibition of growth at 10 µM (HT-29): -3.66%
inhibition of growth at 10 µM (SK-MEL-2): -13%
inhibition of growth at 10 µM (KM12): -8.1%
inhibition of growth at 10 µM (K562): 2.53%
inhibition of growth at 10 µM (Hs-578T): 1.5%
inhibition of growth at 10 µM (M14): -2.31%
inhibition of growth at 10 µM (Malme-3M): 3.6%
inhibition of growth at 10 µM (SF-268): -4.2%
inhibition of growth at 10 µM (SNB-19): -7.64%
